Experimental findings from paper PMC8887546, “Design and Synthesis of Brain Penetrant Glycopeptide Analogues of PACAP With Neuroprotective Potential for Traumatic Brain Injury and Parkinsonism” (Frontiers in drug discovery, 2022) are described below.

For assay [1], the system named is Sprague Dawley rats, 6-OHDA lesion. The experiment in a line: Amphetamine-induced rotations, mild 6-OHDA hemi-parkinsonian rat model (study 1). It is filed as in vivo. Conditions: mild lesion (25%), 15 mg/kg i.p. 6 h prior to and 24 h post-lesion, 2 + 4 weeks, vs vehicle. The protocol: Rats were treated with 2LS98Lac or saline (vehicle) as outlined in the Schemes in Figures 9A,B via intraperitoneal (i.p.) injection (15 mg/kg). All animals were made hemi-parkinsonian with unilateral, striatal 6-hydroxydopamine (Sigma Aldrich, St. Louis, MO) injections. After surgery, behavioral assessments were done at 2- and 4-weeks post-surgery. 24 h after the last test animals were either euthanized and whole brains were harvested for future biochemical analysis or perfused and brains collected for immunohistochemistry and stereological assessment of tyrosine hydroxylase-positive (TH+) cells remaining in the SNc. In study 1: n = 16 each group were included, and all underwent the behavioral analysis: n = 16, and for the stereology in the SNc, n = 8 each group was used. […]
In order to pharmacologically assess the degree of dopaminergic (DA) depletion in the lesioned side, animals were given amphetamine, an indirectly acting DA agonist and placed into a plexiglass cylinder (38 cm tall × 38 cm across) enclosed in an open field box ([Yue et al., 2011]). Dextro-amphetamine in sterile 0.9% saline (Sigma-Aldrich) was injected i.p. at 5 mg/kg, and rotations were recorded from above using Logitech HD web cameras connected to an Acer Aspire SWS-015 computer. An observer blinded to the groups counted rotations in both the ipsilateral and contralateral rotations for the entire 70 min period. […]

The target of a further assay is T1, human PAC1 receptor (Homo sapiens, UniProt P41586).
T1 construct: expressed in transfected cells; host or cells: CHO cells (G418 selection)
T1 sequence (P41586 21-468): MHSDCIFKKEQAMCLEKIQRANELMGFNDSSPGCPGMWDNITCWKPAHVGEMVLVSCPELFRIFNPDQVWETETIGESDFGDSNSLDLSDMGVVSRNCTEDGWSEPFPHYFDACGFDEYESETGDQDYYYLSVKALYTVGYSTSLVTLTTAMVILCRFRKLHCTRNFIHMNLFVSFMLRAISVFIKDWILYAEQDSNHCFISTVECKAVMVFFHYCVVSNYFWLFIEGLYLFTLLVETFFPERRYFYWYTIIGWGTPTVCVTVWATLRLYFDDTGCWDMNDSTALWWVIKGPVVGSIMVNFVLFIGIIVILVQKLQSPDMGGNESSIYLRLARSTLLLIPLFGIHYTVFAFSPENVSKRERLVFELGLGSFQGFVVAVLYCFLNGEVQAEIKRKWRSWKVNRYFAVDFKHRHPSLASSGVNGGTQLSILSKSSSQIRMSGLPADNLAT
Briefly: cAMP stimulation in CHO cells expressing PAC1. In kind it is cell-based. The gist of the method: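 Serum-starved CHO cells expressing human receptors were pre-treated 20 min with 500 μM IBMX, then exposed to agonist concentration curves for 10 min in 500 μM IBMX. cAMP quantified by competition with bovine PKA and ^3H-cAMP (1 h, room temperature), scintillation read.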

On to `[2H]C([2H])([2H])C([2H])(C([2H])([2H])[2H])[C@]([2H])(NC(=O)[C@H](C)NC(=O)[C@H](C)NC(=O)[C@H](CC(C)C)NC(=O)[C@H](Cc1ccc(O)cc1)NC(=O)[C@H](CCCCN)NC(=O)[C@H](CCCCN)NC(=O)[C@@]([2H])(NC(=O)[C@H](C)NC(=O)[C@H](CC(C)C)NC(=O)[C@H](CCC(N)=O)NC(=O)[C@H](CCCCN)NC(=O)[C@H](CCCNC(=N)N)NC(=O)[C@H](Cc1ccc(O)cc1)NC(=O)[C@H](CCCNC(=N)N)NC(=O)[C@H](CO)NC(=O)[C@H](Cc1ccc(O)cc1)NC(=O)[C@H](CO)NC(=O)[C@H](CC(=O)O)NC(=O)[C@@H](NC(=O)[C@H](Cc1ccccc1)NC(=O)[C@@H](NC(=O)CNC(=O)[C@H](CC(=O)O)NC(=O)[C@H](CO)NC(=O)[C@@H](N)Cc1c[nH]cn1)[C@@H](C)CC)[C@@H](C)O)C([2H])(C([2H])([2H])[2H])C([2H])([2H])[2H])C(=O)N[C@@H](CC(C)C)C(=O)N[C@@H](CO[C@@H]1O[C@H](CO)[C@@H](O[C@@H]2O[C@H](CO)[C@H](O)[C@H](O)[C@H]2O)[C@H](O)[C@H]1O)C(N)=O` [Compound 2LS98Lac], for which the “Cumulative contralateral amphetamine-induced rotations” value in assay [1] was “significantly decreased”. This compound also showed an EC50 on human PAC1 receptor of 0.72 nM. Also, the Emax at human PAC1 receptor (CHO) was found to be 93%.
